Assay results from patent publication US12364709B2, “Bioavailable poly amines” (AMINEX THERAPEUTICS, INC., priority 2016, dated 2025).

Test: 28-day repeat-dose toxicity study, toxicokinetics of AMXT 1501 dicaprate
Format: in vivo, beagle dogs
Procedure: AMXT 1501 PK parameters were calculated for all AMXT 1501 dicaprate-dosed animals for the first dose (Day 1) and last dose (Day 28).

[1] = 8 mg/kg/day PO, DFMO 0, Day 1, M+F combined
[2] = 8 mg/kg/day PO, DFMO 0, Day 28, M+F combined
[3] = 8 mg/kg/day PO, DFMO 50 mg/kg/day, Day 28, M+F combined
[4] = 8 mg/kg/day PO, DFMO 200 mg/kg/day, Day 1, M+F combined
[5] = 16 mg/kg/day PO, DFMO 0, Day 1, M+F combined
[6] = 16 mg/kg/day PO, DFMO 0, Day 28, M+F combined
[7] = 16 mg/kg/day PO, DFMO 50 mg/kg/day, Day 28, M+F combined
[8] = 16 mg/kg/day PO, DFMO 200 mg/kg/day, Day 1, M+F combined
[9] = 32 mg/kg/day PO, DFMO 0, Day 1, M+F combined
[10] = 32 mg/kg/day PO, DFMO 0, Day 28, M+F combined

## CCCCCCCCCCCCCCCC(=O)NCCCC[C@@H](N)C(=O)NCCCNCCCCNCCCN [AMXT 1501 dicaprate]
[1]
  AUC0-24 hr Max.: 2810 ng·h/mL
  AUC0-24 hr Min.: 374 ng·h/mL
  Cmax Max.: 158 ng/mL
  Cmax Min.: 30.8 ng/mL
  Tmax Max.: 12.0 h
  Tmax Min.: 2.00 h
[2]
  AUC0-24 hr Max.: 5230 ng·h/mL
  AUC0-24 hr Min.: 249 ng·h/mL
  AUC0-t Max.: 9470 ng·h/mL
  AUC0-t Min.: 308 ng·h/mL
  AUC0-∞ Min.: 328 ng·h/mL
  Cmax Max.: 360 ng/mL
  Cmax Min.: 17.7 ng/mL
  Tmax Min.: 0.00 h
  t1/2 Max.: 28.8 h
  t1/2 Min.: 12.6 h
[3]
  AUC0-24 hr Max.: 4230 ng·h/mL
  AUC0-24 hr Min.: 366 ng·h/mL
  AUC0-t Max.: 5010 ng·h/mL
  AUC0-t Min.: 1040 ng·h/mL
  AUC0-∞ Max.: 5120 ng·h/mL
  AUC0-∞ Min.: 1060 ng·h/mL
  Cmax Max.: 275 ng/mL
  Cmax Min.: 48.0 ng/mL
  Tmax Max.: 12.0 h
  Tmax Min.: 0.00 h
  t1/2 Max.: 24.9 h
  t1/2 Min.: 8.85 h
[4]
  AUC0-24 hr Max.: 2670 ng·h/mL
  AUC0-24 hr Min.: 323 ng·h/mL
  Cmax Max.: 182 ng/mL
  Cmax Min.: 35.2 ng/mL
  Tmax Max.: 12.0 h
[5]
  AUC0-24 hr Max.: 6350 ng·h/mL
  AUC0-24 hr Min.: 104 ng·h/mL
  Cmax Max.: 408 ng/mL
  Cmax Min.: 10.4 ng/mL
  Tmax Max.: 12.0 h
  Tmax Min.: 2.00 h
[6]
  AUC0-24 hr Max.: 7800 ng·h/mL
  AUC0-24 hr Min.: 1320 ng·h/mL
  AUC0-t Max.: 10800 ng·h/mL
  AUC0-t Min.: 4870 ng·h/mL
  AUC0-∞ Max.: 10800 ng·h/mL
  AUC0-∞ Min.: 4910 ng·h/mL
  Cmax Max.: 408 ng/mL
  Cmax Min.: 109 ng/mL
  Tmax Max.: 12.0 h
  Tmax Min.: 0.00 h
  t1/2 Max.: 35.8 h
  t1/2 Min.: 10.1 h
[7]
  AUC0-24 hr Max.: 10800 ng·h/mL
  AUC0-24 hr Min.: 1480 ng·h/mL
  AUC0-t Max.: 22300 ng·h/mL
  AUC0-t Min.: 3410 ng·h/mL
  AUC0-∞ Max.: 22600 ng·h/mL
  AUC0-∞ Min.: 3610 ng·h/mL
  Cmax Max.: 578 ng/mL
  Cmax Min.: 98.4 ng/mL
  Tmax Max.: 12.0 h
  Tmax Min.: 0.00 h
  t1/2 Max.: 69.4 h
  t1/2 Min.: 26.4 h
[8]
  AUC0-24 hr Max.: 4280 ng·h/mL
  AUC0-24 hr Min.: 94.4 ng·h/mL
  Cmax Max.: 263 ng/mL
  Cmax Min.: 7.27 ng/mL
  Tmax Max.: 12.0 h
[9]
  AUC0-24 hr Max.: 6590 ng·h/mL
  AUC0-24 hr Min.: 999 ng·h/mL
  Cmax Max.: 353 ng/mL
  Cmax Min.: 58.2 ng/mL
  Tmax Max.: 12.0 h
  Tmax Min.: 2.00 h
[10]
  AUC0-24 hr Max.: 16600 ng·h/mL
  AUC0-24 hr Min.: 2830 ng·h/mL
  AUC0-t Max.: 41500 ng·h/mL
  AUC0-t Min.: 8730 ng·h/mL
  AUC0-∞ Max.: 41700 ng·h/mL
  AUC0-∞ Min.: 8810 ng·h/mL
  Cmax Max.: 1110 ng/mL
  Cmax Min.: 190 ng/mL
  Tmax Max.: 12.0 h
  Tmax Min.: 0.00 h
  t1/2 Max.: 61.1 h
  t1/2 Min.: 27.3 h
8, 16 and 32 mg/kg/day, Day 1 and Day 28, enterically-coated tablets
  dose-proportionality of plasma levels of AMXT 1501: approximately dose-proportional increases
beagle, dog, plasma, oral, Day 28, all dose groups, read-out: Day 28 individual animal AMXT 1501 t1/2 values
  half-life at 28 days: 531 to 4160 min
Both sexes, beagle, dog, plasma, po, 8 mg/kg/day, 8 mg/kg/day PO, DFMO 0, Day 1, M+F combined, read-out: AUC0-24 hr Mean
  AUC(0-t): 1330 ng·h/mL
